From ChEMBL document CHEMBL3817798, “Cholecystokinin-1 receptor antagonists: 5-hydroxy-5-aryl-pyrrol-2-ones as anticancer agents” (Medchemcomm, 2016)
Active and inactive are the calls of the source. The rule behind the calls is not given here.

Tests used:
[1] = Displacement of [125]I-CCK-8 from CCK-B receptor in guinea pig cerebral cortex after 2 hrs by gamma counting; type: tissue-based, Cavia porcellus
[2] = target: T1, Cholecystokinin receptor type A (Rattus norvegicus, UniProt P30551); assay: Displacement of [125]I-CCK-8 from CCK-A receptor in rat pancreatic membrane after 2 hrs by gamma counting; type: cell membranes
T1 sequence (P30551 whole entry): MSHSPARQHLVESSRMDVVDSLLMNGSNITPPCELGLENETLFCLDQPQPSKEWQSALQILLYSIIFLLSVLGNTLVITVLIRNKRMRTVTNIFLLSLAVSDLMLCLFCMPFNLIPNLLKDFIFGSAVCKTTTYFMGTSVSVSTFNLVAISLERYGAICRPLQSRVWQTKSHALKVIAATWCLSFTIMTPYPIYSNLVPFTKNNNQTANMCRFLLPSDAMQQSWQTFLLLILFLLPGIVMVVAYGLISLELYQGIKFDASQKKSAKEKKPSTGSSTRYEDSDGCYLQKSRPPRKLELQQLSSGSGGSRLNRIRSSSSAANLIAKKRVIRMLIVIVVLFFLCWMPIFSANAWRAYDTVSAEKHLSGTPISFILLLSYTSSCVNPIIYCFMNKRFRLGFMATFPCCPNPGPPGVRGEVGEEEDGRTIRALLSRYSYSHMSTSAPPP

[3] = Antiproliferative activity against human MiaPaCa cells assessed as reduction in cell viability after 3 days by MTT assay; type: functional, cell-based; settings: MIA PaCa-2, 72 h
AGS = assay: Antiproliferative activity against human AGS cells assessed as reduction in cell viability after 3 days by MTT assay; type: functional, cell-based; settings: 72 h
[4] = Antiproliferative activity against human PANC cells assessed as reduction in cell viability after 3 days by MTT assay; type: functional, cell-based; settings: 72 h
[5] = Antiproliferative activity against human U373MG cells assessed as reduction in cell viability after 3 days by MTT assay; type: functional, cell-based, U-373MG ATCC; settings: U373 MG, 72 h
MAC13 = assay: Antiproliferative activity against mouse MAC13 cells assessed as reduction in cell viability after 3 days by MTT assay; type: functional, cell-based; settings: MAC13, 72 h
MAC16 [6] = assay: Antiproliferative activity against mouse MAC16 cells assessed as reduction in cell viability after 3 days by MTT assay; type: functional, cell-based; settings: MAC16, 72 h
MAC16 [7] = assay: Antitumor activity against mouse MAC16 cells xenografted in po dosed NSG mouse measured thrice weekly after compound dosage; type: functional, organism-based
MiaPaCa = assay: Antitumor activity against human MiaPaCa cells xenografted in po dosed NSG mouse measured thrice weekly after compound dosage; type: functional, organism-based
[8] = Potency index, ratio of lorglumide IC50 to compound IC50 for human MiaPaCa cells; type: functional
MAC16 [9] = assay: Antimetastatic activity against mouse MAC16 cells xenografted in po dosed NSG mouse assessed as reduction of cell migration to lung measured thrice weekly after compound dosage; type: functional, organism-based
[10] = Oral bioavailability in rat; type: ADME, organism-based; settings: in vivo
[11] = Half life in rat; type: ADME, organism-based; settings: in vivo
[12] = target: T2, Cholecystokinin receptor type A (Homo sapiens) (UniProt P32238); assay: […] activity at CCK1 receptor (unknown origin)
T2 sequence (whole entry): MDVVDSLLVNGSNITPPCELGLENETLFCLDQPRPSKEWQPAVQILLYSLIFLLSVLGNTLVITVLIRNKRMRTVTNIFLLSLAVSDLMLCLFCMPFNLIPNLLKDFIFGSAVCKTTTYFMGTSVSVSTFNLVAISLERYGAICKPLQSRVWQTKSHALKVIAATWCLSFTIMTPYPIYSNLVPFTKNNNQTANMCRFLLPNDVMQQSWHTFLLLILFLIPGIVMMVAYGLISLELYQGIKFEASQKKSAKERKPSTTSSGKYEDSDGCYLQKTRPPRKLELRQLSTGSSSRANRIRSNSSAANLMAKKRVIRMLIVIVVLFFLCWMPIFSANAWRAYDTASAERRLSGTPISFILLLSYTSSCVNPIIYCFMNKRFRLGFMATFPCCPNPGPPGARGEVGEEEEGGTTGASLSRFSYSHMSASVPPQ

[13] = target: T3, Cholecystokinin receptor type A (Rattus norvegicus) (UniProt P30551); assay: Antagonist activity at CCK1 receptor in rat duodenum assessed as inhibition of electrically stimulated contraction
T3 sequence (whole entry): T1 sequence (P30551 whole entry)

[14] = target: T4, Cholecystokinin receptor type A (Cavia porcellus) (UniProt Q63931); assay: Insurmountable antagonist activity at CCK1 receptor in guinea pig bladder assessed as inhibition of CCK8s induced contraction preincubated 10 mins followed by CCK8s addition
T4 sequence (whole entry): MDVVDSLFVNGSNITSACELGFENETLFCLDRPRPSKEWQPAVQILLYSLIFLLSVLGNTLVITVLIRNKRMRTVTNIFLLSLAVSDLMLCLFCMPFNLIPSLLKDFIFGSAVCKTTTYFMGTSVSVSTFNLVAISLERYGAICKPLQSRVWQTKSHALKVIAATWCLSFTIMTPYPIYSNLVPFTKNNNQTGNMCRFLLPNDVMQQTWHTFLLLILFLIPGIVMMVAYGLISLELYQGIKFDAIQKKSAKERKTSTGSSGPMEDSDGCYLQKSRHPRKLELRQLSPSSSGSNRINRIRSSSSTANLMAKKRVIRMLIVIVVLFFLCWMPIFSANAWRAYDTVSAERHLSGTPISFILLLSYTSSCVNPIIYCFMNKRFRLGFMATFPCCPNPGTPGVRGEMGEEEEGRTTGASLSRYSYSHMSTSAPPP

Compound | IC50 [1] [nM] | IC50 [2] [nM] | IC50 [3] [nM] | IC50 (AGS) [nM] | IC50 [4] [nM] | IC50 [5] [nM] | IC50 (MAC13) [nM] | IC50 (MAC16 [6]) [nM] | other results
CC(C)CN1C(=O)C=C(Cl)C1(O)c1ccccc1 (stereo not drawn) | 1200 | 20 | 15 | 262 | 27 | 765 | 536 | 96 | TGI (MAC16 [7]): Active; TGI (MiaPaCa): Active; Ratio IC50 [8]: 20; Activity (MAC16 [9]): Active
O=C1C=C(Cl)C(O)(c2ccccc2)N1C1CC1 (stereo not drawn) | > 10000 | 7500 | – | – | – | – | – | – | –
CC(C)(C)N1C(=O)C=C(Cl)C1(O)c1ccccc1 (stereo not drawn) | 900 | 120 | – | – | – | – | – | – | –
O=C1C=C(Cl)C(O)(c2ccc(Cl)cc2)N1C1CCCC1 (stereo not drawn) | 10000 | – | – | – | – | – | – | – | –
CCCCCCN1C(=O)C=C(Cl)C1(O)c1ccccc1 (stereo not drawn) | > 10000 | 4500 | – | – | – | – | – | – | –
CC(C)N1C(=O)C=C(Cl)C1(O)c1ccccc1 (stereo not drawn) | 900 | 200 | – | – | – | – | – | – | –
O=C1C=C(Cl)C(O)(c2ccc(Cl)cc2)N1C1CC1 (stereo not drawn) | > 10000 | 4000 | – | – | – | – | – | – | –
CN1C(=O)C=C(Cl)C1(O)c1ccc(Cl)cc1 (stereo not drawn) | > 10000 | 2000 | – | – | – | – | – | – | –
CC(C)CN1C(=O)C=C(Cl)C1(O)c1ccc(F)cc1 (stereo not drawn) | 750 | 12 | 11 | 222 | 18 | 665 | 508 | 76 | bioavailability [10]: 98%; half-life [11]: 3.5 h; TGI (MAC16 [7]): Active; TGI (MiaPaCa): Active; Activity (MAC16 [9]): Active
CN1C(=O)C(NC(=O)c2cc3ccccc3[nH]2)N=C(c2ccccc2)c2ccccc21 (stereo not drawn) | – | – | 1200 | > 5000 | 480 | > 5000 | 1100 | 1000 | Activity [12]: Active
Cc1cccc(NC(=O)N[C@@H]2N=C(c3ccccc3)c3ccccc3N(C)C2=O)c1 [L-365260] | – | – | > 5000 | 675 | > 1000 | 541 | > 5000 | > 5000 | –
CC(C)N1C(=O)C=C(Cl)C1(O)c1ccc(Cl)cc1 (stereo not drawn) | 3700 | 300 | – | – | – | – | – | – | –
O=C1C=C(Cl)C(O)(c2ccccc2)N1c1ccccc1 (stereo not drawn) | > 10000 | > 10000 | – | – | – | – | – | – | –
CCCCCCN1C(=O)C=C(Cl)C1(O)c1ccc(Cl)cc1 (stereo not drawn) | > 10000 | 3600 | – | – | – | – | – | – | –
CCCCCN(CCCCC)C(=O)C(CCC(=O)O)NC(=O)c1ccc(Cl)c(Cl)c1 (stereo not drawn) [LORGLUMIDE SODIUM] | > 10000 | 170 | 425 | 289 | 316 | > 5000 | 421 | 861 | –
O=C1C=C(Cl)C(O)(c2ccccc2)N1C1CCCC1 (stereo not drawn) | 840 | – | – | – | – | – | – | – | –
CN1C(=O)C=C(Cl)C1(O)c1ccccc1 (stereo not drawn) | > 10000 | 2500 | – | – | – | – | – | – | –
CC(C)CN1C(=O)C=C(Cl)C1(O)c1ccc(Cl)cc1 (stereo not drawn) | 400 | 8 | 13 | 242 | 22 | 475 | 526 | 86 | inhibition [13]: Dose-dependent effect; inhibition [14]: Dose-dependent effect
O=C1C=C(Cl)C(O)(c2ccccc2)N1C1CCCCC1 (stereo not drawn) | > 10000 | > 10000 | – | – | – | – | – | – | –
O=C1C=C(Cl)C(O)(c2ccccc2)N1Cc1ccccc1 (stereo not drawn) | 22 | 800 | 230 | 53 | 674 | 23 | > 1000 | > 1000 | –
